ChEMBL document CHEMBL5696442, “Discovery of type II inhibitors of TGFβ-activated kinase 1 (TAK1) and mitogen-activated protein kinase kinase kinase kinase 2 (MAP4K2)” (J Med Chem, 2015)
Calls of active or inactive are those of the source. The calls are words filed in the database; no cut-off is given here.

How the values were obtained:
[1] = biological target: Serine/threonine-protein kinase 4 (Homo sapiens) (UniProt Q13043); assay: Inhibition of MST1 Lys1 labeling site harbouring AIHKETGQIVAIKQVPVESDLQEIIK in human Huh-7 cell lysate at 1 uM by KiNativ Profiling analysis relative to control
[2] = biological target: Serine/threonine-protein kinase WNK2 (Homo sapiens) (UniProt Q9Y3S1); assay: Inhibition of Wnk2 ACT labeling site in human Huh-7 cell lysate at 1 uM by KiNativ Profiling analysis relative to control; type: subcellular
[3] = biological target: Serine/threonine-protein kinase Nek7 (Homo sapiens) (UniProt Q8TDX7); assay: Inhibition of NEK7 Lys2 labeling site harbouring VMHRDIKPANVFITATGVVK in human Huh-7 cells at 1 uM by KiNativ Profiling analysis relative to control; type: cell-based
[4] = biological target: Proto-oncogene tyrosine-protein kinase Src (Homo sapiens, UniProt P12931); assay: Inhibition of SRC (unknown origin) at 10 uM by Ambit Kinomescan binding assay relative to control; values are per cent of control
[5] = biological target: Cyclin-dependent kinase 2 (Homo sapiens) (UniProt P24941); assay: Inhibition of CDK2 (unknown origin) at 10 uM by Ambit Kinomescan binding assay relative to control
[6] = biological target: Mitogen-activated protein kinase kinase kinase 10 (Homo sapiens) (UniProt Q02779); assay: Inhibition of MLK2 (unknown origin) at 10 uM by Ambit Kinomescan binding assay
[7] = biological target: Focal adhesion kinase 1 (Homo sapiens) (UniProt Q05397); assay: Inhibition of FAK K1 labeling site in human Huh-7 cells at 10 uM by KiNativ Profiling analysis relative to control; type: cell-based
[8] = system: Receptor-type tyrosine-protein kinase FLT3 (Homo sapiens), P36888 [UNDEFINED MUTATION]; assay: Inhibition of FLT3 ITD mutant (unknown origin) at 10 uM by Ambit Kinomescan binding assay relative to control
[9] = biological target: Tyrosine-protein kinase Lyn (Homo sapiens, UniProt P07948); assay: Inhibition of LYN (unknown origin) at 10 uM by Ambit Kinomescan binding assay relative to control; values are per cent of control
[10] = biological target: Tyrosine-protein kinase CSK (Homo sapiens, UniProt P41240); assay: Inhibition of CSK ACT labeling site harbouring VSDFGLTKEASSTQDTGKLPVK in human Huh-7 cells at 1 uM by KiNativ Profiling analysis relative to control; type: cell-based
[11] = biological target: Cyclin-dependent kinase 2 (Homo sapiens) (UniProt P24941); assay: Inhibition of CDK2 K2 labeling site in human Huh-7 cells at 10 uM by KiNativ Profiling analysis relative to control; type: cell-based
RAW = assay: Inhibition of LPS induced p105 phosphorylation in mouse RAW cells preincubated for 1 hr followed by LPS stimulation and measured after 30 mins by Western blot analysis; type: functional, cell-based; conditions: dose 0.01-10 µM
[12] = biological target: Casein kinase I isoform epsilon (Homo sapiens) (UniProt P49674); assay: Inhibition of CSNK1E (unknown origin) at 1 uM by Ambit Kinomescan binding assay relative to control
[13] = biological target: eIF-2-alpha kinase GCN2 (Homo sapiens) (UniProt Q9P2K8); assay: Inhibition of GCN2 domain2 Lys1 labeling site in human A-375 cells at 0.05 uM by KiNativ Profiling analysis relative to control; type: cell-based
[14] = biological target: Wee1-like protein kinase 2 (Homo sapiens) (UniProt P0C1S8); assay: Inhibition of WEE2 (unknown origin) at 1 uM by Ambit Kinomescan binding assay relative to control
[15] = biological target: Tyrosine-protein kinase receptor UFO (Homo sapiens) (UniProt P30530); assay: Inhibition of AXL (unknown origin) at 1 uM by Ambit Kinomescan binding assay relative to control; values are per cent of control
[16] = biological target: T1, Scaffold protein ILK (Homo sapiens) (UniProt Q13418); assay: Inhibition of ILK Lys1 labeling site in human A-375 cells at 0.05 uM by KiNativ Profiling analysis relative to control; type: cell-based
T1 sequence (whole entry): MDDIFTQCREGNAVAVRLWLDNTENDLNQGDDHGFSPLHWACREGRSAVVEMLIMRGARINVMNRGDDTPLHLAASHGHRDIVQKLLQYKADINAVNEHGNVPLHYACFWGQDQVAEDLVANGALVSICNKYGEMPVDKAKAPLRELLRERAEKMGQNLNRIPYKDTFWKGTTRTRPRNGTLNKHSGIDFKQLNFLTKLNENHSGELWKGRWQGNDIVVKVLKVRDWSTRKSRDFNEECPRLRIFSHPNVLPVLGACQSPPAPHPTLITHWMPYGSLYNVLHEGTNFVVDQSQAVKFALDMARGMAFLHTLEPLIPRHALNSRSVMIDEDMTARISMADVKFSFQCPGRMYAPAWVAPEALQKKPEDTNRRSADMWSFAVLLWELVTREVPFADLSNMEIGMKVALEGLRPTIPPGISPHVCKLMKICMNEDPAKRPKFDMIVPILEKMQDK

[17] = biological target: Serine/threonine-protein kinase 32C (Homo sapiens) (UniProt Q86UX6); assay: Inhibition of YANK3 Lys2 labeling site in human A-375 cells at 0.5 uM by KiNativ Profiling analysis relative to control; type: cell-based
[18] = biological target: Serine/threonine-protein kinase 38-like (Homo sapiens) (UniProt Q9Y2H1); assay: Inhibition of NDR2 Lys1 labeling site harbouring KDTGHIYAMKILR in human A-375 cells at 5 uM by KiNativ Profiling analysis relative to control; type: cell-based
[19] = biological target: Citron Rho-interacting kinase (Homo sapiens) (UniProt O14578); assay: Inhibition of CIT (unknown origin) at 1 uM by Ambit Kinomescan binding assay relative to control
[20] = system: Proto-oncogene tyrosine-protein kinase receptor Ret (Homo sapiens), P07949 [V804M]; assay: Inhibition of RET V804M mutant (unknown origin) at 1 uM by Ambit Kinomescan binding assay relative to control; values are per cent of control

Chain of Serine/threonine-protein kinase 38-like (Homo sapiens) (Q9Y2H1 2-464 limits assumed): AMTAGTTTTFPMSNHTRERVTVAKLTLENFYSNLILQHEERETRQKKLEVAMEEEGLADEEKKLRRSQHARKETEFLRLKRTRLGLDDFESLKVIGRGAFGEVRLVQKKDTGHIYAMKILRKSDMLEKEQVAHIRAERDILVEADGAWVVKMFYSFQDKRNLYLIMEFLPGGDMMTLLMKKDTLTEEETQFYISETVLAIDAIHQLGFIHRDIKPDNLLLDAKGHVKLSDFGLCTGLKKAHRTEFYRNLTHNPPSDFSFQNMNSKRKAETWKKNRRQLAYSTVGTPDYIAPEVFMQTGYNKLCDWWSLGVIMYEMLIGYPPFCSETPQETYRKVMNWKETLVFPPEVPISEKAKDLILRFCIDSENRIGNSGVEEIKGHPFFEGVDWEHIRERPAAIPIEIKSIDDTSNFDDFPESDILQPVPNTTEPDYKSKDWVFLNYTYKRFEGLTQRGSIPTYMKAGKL
Chain of Focal adhesion kinase 1 (Homo sapiens) (Q05397 2-1052 limits assumed): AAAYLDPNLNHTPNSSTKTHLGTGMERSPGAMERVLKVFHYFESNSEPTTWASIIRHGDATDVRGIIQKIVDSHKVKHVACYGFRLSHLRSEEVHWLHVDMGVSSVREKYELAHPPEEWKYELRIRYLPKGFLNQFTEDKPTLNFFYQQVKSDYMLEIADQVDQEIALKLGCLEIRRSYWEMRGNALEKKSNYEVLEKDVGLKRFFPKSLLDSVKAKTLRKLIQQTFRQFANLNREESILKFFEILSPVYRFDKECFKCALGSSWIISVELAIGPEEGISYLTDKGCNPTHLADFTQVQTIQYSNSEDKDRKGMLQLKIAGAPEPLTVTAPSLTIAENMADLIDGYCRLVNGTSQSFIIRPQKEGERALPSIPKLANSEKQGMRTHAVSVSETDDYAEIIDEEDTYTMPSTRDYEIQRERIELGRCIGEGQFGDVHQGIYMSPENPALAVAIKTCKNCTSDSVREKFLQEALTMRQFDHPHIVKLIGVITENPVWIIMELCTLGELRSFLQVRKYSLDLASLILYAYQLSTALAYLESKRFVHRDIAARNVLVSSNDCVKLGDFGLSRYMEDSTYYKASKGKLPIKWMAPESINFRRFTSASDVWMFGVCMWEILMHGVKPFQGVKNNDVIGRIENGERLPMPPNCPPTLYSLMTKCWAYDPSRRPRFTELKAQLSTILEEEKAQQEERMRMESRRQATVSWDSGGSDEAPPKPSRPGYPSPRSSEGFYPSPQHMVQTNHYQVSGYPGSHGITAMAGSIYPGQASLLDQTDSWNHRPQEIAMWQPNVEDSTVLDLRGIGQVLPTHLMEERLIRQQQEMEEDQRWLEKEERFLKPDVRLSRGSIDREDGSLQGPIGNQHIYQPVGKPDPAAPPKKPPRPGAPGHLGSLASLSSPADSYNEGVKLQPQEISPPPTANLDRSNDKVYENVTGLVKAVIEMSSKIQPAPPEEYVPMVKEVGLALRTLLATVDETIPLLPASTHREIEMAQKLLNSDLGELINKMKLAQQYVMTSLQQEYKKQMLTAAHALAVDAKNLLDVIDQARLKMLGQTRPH
Chain of Tyrosine-protein kinase CSK (P41240 2-450 limits assumed): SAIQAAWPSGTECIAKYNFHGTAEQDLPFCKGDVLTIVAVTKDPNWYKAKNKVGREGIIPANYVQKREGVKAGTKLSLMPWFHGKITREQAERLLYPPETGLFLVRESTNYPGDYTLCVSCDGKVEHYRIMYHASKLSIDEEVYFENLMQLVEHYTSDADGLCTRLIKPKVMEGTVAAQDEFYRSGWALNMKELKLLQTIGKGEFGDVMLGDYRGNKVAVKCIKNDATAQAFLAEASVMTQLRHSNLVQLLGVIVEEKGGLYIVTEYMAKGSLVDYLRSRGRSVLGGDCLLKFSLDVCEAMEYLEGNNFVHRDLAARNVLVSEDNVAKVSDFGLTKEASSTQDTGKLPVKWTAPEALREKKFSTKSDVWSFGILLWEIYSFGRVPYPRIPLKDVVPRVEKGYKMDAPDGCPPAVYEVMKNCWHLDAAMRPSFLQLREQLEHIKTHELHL
Chain of Wee1-like protein kinase 2 (Homo sapiens) (P0C1S8 whole entry, looked up): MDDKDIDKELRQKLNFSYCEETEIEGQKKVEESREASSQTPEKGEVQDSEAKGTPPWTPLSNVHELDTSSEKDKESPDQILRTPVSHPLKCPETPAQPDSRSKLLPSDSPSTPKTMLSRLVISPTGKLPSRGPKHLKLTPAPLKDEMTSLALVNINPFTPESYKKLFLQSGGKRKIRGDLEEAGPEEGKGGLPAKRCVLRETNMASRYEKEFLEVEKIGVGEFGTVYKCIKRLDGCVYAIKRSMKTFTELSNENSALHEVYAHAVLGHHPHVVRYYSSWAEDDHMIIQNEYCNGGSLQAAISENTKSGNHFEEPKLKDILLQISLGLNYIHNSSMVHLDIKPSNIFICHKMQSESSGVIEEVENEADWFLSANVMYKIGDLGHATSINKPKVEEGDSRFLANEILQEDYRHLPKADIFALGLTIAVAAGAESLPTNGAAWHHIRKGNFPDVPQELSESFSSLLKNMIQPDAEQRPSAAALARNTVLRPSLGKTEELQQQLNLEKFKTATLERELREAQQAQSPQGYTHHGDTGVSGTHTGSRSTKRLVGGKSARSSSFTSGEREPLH
Chain of Citron Rho-interacting kinase (Homo sapiens) (O14578 whole entry): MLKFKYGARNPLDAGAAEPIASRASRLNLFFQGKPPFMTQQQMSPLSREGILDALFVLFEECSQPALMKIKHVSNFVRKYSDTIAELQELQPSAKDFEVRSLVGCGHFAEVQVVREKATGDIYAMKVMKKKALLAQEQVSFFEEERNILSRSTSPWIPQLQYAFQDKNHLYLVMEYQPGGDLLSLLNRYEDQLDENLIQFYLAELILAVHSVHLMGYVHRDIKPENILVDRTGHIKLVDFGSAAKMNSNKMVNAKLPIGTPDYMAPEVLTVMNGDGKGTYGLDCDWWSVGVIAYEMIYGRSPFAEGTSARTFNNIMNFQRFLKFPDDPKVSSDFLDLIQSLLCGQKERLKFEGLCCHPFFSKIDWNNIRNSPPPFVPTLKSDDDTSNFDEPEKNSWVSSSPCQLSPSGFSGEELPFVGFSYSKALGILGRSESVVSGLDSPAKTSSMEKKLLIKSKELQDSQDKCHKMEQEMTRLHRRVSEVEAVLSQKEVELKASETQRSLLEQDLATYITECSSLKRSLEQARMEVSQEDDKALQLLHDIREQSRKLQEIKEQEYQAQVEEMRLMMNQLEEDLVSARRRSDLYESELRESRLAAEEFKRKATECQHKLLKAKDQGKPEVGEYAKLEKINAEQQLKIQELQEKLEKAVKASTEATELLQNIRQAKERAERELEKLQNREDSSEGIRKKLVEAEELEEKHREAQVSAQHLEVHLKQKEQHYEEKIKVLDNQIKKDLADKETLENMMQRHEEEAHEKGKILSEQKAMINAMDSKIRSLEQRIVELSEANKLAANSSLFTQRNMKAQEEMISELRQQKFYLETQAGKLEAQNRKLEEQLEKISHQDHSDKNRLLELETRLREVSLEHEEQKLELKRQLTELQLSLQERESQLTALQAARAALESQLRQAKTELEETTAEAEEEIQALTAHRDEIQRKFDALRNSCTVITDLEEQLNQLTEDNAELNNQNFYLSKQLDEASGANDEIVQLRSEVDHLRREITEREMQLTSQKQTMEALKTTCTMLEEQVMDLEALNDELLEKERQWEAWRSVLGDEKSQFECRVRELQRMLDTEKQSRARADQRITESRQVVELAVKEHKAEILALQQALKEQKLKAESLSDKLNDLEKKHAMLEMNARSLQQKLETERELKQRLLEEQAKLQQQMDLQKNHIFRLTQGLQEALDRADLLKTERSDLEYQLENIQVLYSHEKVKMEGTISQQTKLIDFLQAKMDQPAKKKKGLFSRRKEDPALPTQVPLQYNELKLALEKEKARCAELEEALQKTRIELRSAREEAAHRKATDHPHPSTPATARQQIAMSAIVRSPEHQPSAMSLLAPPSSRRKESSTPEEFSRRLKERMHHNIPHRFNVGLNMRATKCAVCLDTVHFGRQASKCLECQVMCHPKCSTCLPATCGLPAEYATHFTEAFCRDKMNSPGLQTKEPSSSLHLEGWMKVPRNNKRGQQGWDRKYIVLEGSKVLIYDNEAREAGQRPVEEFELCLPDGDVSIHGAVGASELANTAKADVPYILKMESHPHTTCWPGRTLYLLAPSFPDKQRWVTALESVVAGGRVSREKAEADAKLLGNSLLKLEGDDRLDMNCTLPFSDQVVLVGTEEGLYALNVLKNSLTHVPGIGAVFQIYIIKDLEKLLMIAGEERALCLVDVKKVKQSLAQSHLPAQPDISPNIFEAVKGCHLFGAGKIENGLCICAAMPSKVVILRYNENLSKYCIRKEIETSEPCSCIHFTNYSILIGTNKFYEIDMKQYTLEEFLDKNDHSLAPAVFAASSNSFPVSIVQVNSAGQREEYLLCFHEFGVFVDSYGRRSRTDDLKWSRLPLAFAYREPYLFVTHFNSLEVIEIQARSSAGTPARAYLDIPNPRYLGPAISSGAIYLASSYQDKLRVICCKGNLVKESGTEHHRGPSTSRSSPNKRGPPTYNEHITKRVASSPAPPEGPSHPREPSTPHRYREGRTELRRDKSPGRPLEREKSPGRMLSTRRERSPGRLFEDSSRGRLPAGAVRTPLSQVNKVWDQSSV
Chain of Casein kinase I isoform epsilon (Homo sapiens) (P49674 whole entry, looked up, the tested form may be a part, canonical isoform): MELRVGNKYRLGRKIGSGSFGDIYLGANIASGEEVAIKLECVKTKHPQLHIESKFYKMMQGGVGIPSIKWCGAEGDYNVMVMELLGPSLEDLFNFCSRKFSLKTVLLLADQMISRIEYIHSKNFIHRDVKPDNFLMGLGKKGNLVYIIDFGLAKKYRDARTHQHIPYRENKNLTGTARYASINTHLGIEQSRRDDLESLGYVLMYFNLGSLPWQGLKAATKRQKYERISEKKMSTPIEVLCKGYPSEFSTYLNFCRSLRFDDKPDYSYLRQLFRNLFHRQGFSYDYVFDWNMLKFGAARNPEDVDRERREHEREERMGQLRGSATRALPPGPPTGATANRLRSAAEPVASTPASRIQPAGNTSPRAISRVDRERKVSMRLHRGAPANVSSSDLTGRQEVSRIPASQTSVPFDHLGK

CNc1cc(Oc2cc(C(=O)Nc3cc(N4CCN(C)CC4)cc(C(F)(F)F)c3)ccc2C)ncn1
inhibition [1]: 12.8% | inhibition [2]: -6.9% | inhibition [3]: 6.9%

CCN1CCN(Cc2ccc(NC(=O)c3ccc(C)c(Oc4ccnc5[nH]ccc45)c3)cc2C(F)(F)F)CC1
residual activity [4]: 0.2% | inhibition [5]: 11% | inhibition [6]: inactive | inhibition [7]: 13% | inhibition [8]: 0.7% | percent of control [9]: 0.75% | inhibition [10]: 2.4% | inhibition [11]: 16.2% | inhibition (RAW): Dose-Dependent Effect

CCN1CCN(Cc2ccc(NC(=O)c3ccc(C)c(/C=C/c4cnc5[nH]ccc5c4OC)c3)cc2C(F)(F)F)CC1
inhibition [12]: 80% | inhibition [13]: 4.6% | inhibition [14]: 74% | residual activity [15]: 55% | inhibition [16]: 3.9% | inhibition [17]: 11.5% | inhibition [18]: 14.8% | inhibition [19]: 4.6% | percent of control [20]: 0.8%
